According to patent US20180055877A1, “THERAPEUTIC NANOPARTICLES AND METHODS THEREOF” (priority 2014, published 2018):
In brackets after ≈: the same amount, converted by molar mass.

How the values were obtained:
T. rubrum [1] = test: aPI in the presence of ROS and RNS scavengers, CFU; type: cell-based; conditions: scavenger added before aPI with curcumin photosensitizer
Procedure: (§4) Different ROS and RNS scavengers were used to evaluate the effect of radical stress inhibition on aPI efficacy. […] Scavengers were added to fungal suspensions immediately before initiation of aPI and incubated for 1 h with RPMI 1640 without phenol red plus 2% glucose at 28° C. To evaluate fungal viability, 150 μL of the fungal suspensions were plated onto PDA, and incubated at 28° C. for 72 hours. The HT TitierTACS™ assay kit (Trevigen, Gaithersburg, Md., USA) was used to evaluate the occurrence of apoptosis after aPI.

T. rubrum [2] = test: Susceptibility testing (microdilution, CLSI M38-A) and growth curves; type: cell-based
Procedure: Susceptibility of T. rubrum to ground-state curcumin was tested by a microdilution method according to CLSI M38-A.49, 52 Itraconazole concentration ranged from 0.015 μg/mL to 8 μg/mL and curcumin and curc-np concentrations from 0.0012 μg/mL to 20 μg/mL. A 1% DMSO solution in control medium was evaluated. The MIC value was defined as the concentration required for 80% […] compared to untreated control. 12, 49 Growth kinetics of ground-state curcumin compared to aPI was also evaluated. Growth was evaluated for 7 days at 28° C. using a Bioscreen C growth curve system (Growth Curves USA, Piscataway, N.J., USA).

[3] = test system: Pseudomonas aeruginosa, MRSA, Escherichia coli, Klebsiella pneumoniae; conditions: same concentration as generated from the nanoparticles; cited from earlier work
MRSA = test: Colony-forming units (CFU) assay, MRSA; type: cell-based; conditions: 24 h
Procedure: (§1) Following 24 h incubation of E. coli and MRSA, 10 μL aspirates from wells of the honeycomb plates were transferred to Eppendorf tubes with 990 μL PBS and gently vortexed. Controls were collected in the same fashion from wells containing only bacteria and TSB. The suspensions were serially diluted in PBS so that final concentrations were 10^−6 of the incubated concentration, and 100 μL aliquots were plated on TSA plates for 24 h. As with the absorbance assays, 8 clinical strains each of MRSA and E. coli were evaluated (data represents an average for the 8 strains each of E. coli and MRSA), and all conditions were measured in triplicate. CFU's were counted and recorded. Percent survival was determined by comparing CFU counts of SNO-CAP-np- or captopril-treated bacteria to CFU counts of untreated bacteria. P-value <0.05 by unpaired t-test was considered significant.

MRSA clinical strains = test: Bacterial growth susceptibility (OD600), MRSA; type: cell-based; conditions: all concentrations tested, up to 24 h, vs untreated
Procedure: (§2) In this example, 8 clinical strains each of MRSA and E. coli were evaluated. For each bacterial strain, one colony of bacteria grown on tryptic soy agar (TSA) was suspended in 1 mL tryptic soy broth (TSB). One μL aliquots were transferred to a 100-well honeycomb plate with 199 μL TSB. This TSB contained either 1, 2.5, 5, or 10 mg/mL SNO-CAP-np, or 2.5, 5, or 10 mM captopril, and controls included wells containing bacteria and TSB alone. The background absorbance of each SNO-CAP-np concentration was accounted for by wells containing SNO-CAP-np and TSB alone. No background absorbance was measured for captopril. […] All wells were incubated for 24 hours at 37° C. and growth was assessed by measuring optical density at 600 nm (OD600) with a microplate reader (Bioscreen C, Growth Curves USA, Piscataway, N.J.). Each condition was measured in triplicate, and averages were calculated along with standard error of the mean (SEM).
(§3) E. coli and MRSA strains were incubated at 37° C. with and without various concentrations of SNO-CAP-np (1, 2.5, 5, or 10 mg/mL) or captopril ([…]) for 24 h. […] Each data set represents averages for 8 strains of either E. coli or MRSA, and conditions for each strain were measured in triplicate. […]

E. coli clinical strains = test: Bacterial growth susceptibility (OD600), E. coli; type: cell-based; conditions: all concentrations tested, up to 24 h, vs untreated
Procedure: as §2, §3

E. coli = test: Colony-forming units (CFU) assay, E. coli; type: cell-based; conditions: 24 h
Procedure: as §1

[4] = test system: J774.16 macrophages challenged with T. rubrum; test: Phagocytosis assay: J774.16 macrophages challenged with T. rubrum and treated with aPI; type: cell-based
Procedure: Macrophages were challenged with T. rubrum and treated with aPI to investigate the efficacy against infected mammalian cells. Specifically, J774.16 macrophages were grown at 37° C. with 10% CO2 in DMEM (Cellgro, Manassas, Va., USA). The fungal-macrophage cell proportion was 1:1, with 5.0×10^5 fungal cells to 5.0×10^5 macrophage cells. After challenging macrophages with T. rubrum microconidia, the cells were submitted to aPI, followed by incubation in the 10% CO2 chamber at 37° C. for 24 hours. The macrophages were lysed with cold distilled water and the lysate plated onto PDA and incubated at 28° C. for 72 hours.

T. rubrum cells = test: Apoptosis assay after aPI (HT TitierTACS kit); type: cell-based; conditions: vs untreated control
Procedure: as §4

T. rubrum microconidia = test: Antimicrobial photodynamic inhibition (aPI) optimization, CFU; type: cell-based
Procedure: In this example, a curcumin (Sigma-Aldrich, St. […] For susceptibility testing, the stock was dilution in RPMI 1640 medium to a final concentration of 40 μg/mL. For aPI, the stock was diluted in PBS to concentrations of 1.0, 10 and 100 μg/mL. […] A comparative concentration of curcumin incorporated in nanoparticles was used based on spectrophotometric release curves showing that each mg of curc-np contained 10 μg of curcumin. For susceptibility testing, 8 mg of curc-np was suspended in 1 mL of PBS and diluted in RPMI to a final concentration of […] (equivalent to 40 μg/mL of encapsulated curcumin). For aPI, 10 mg of curc-np was suspended in 1 mL of PBS and serially diluted to obtain 10 μg/mL, 100 μg/mL and 10 mg/L of curc-np (equivalent to 1.0, 10, and 100 μg/mL of encapsulated curcumin). The light source used was BLU-U® light model 4070 (DUSA pharmaceuticals, Wilmington, Mass., USA), which emits blue light at a wavelength of 417±5 nm. The doses used were 10 J/cm^2 (17 minutes), 20 J/cm^2 (34 minutes), and 40 J/cm^2 (68 minutes). BLU-U light was chosen as the light source due to its resonance with curcumin. For aPI optimization, fungal cells were submitted to different treatment conditions by varying the photosensitizer (PS) concentration and light dose, as described in Table 1, below. PS without photoactivation and blue light alone served as dark toxicity and light controls, respectively. […] [table]

T. rubrum [5] = test: In vivo antimicrobial photodynamic therapy (aPDT) pilot study; set-up: species or system BALB/c mice; conditions: 500 μg/mL in coconut oil, 10 J/cm^2 blue light, one treatment, CFU three days post treatment
Procedure: BALB/c mice were subcutaneously infected with T. rubrum. Seven days post-infection, mice (n=2 per group) were submitted to one treatment of aPDT, using 500 μg/mL of curcumin and curc-np suspended in coconut oil and 10 J/cm^2 of blue light. Pre-irradiation incubation time was 30 minutes, under light protection. Tissue was homogenized and CFUs quantified three days post treatment.

T. rubrum [6] = test: Intracellular ROS and RNS after aPI, flow cytometry; type: cell-based; conditions: vs untreated
Procedure: Following aPI, samples were incubated with fluorescent probes for 30 minutes at 28° C., and subsequently analyzed with flow cytometry (Becton Dickinson™ LSRII, USA) using a 530/30 nm band pass filter for fluorescence detection. The Mean Fluorescence Intensity (MFI) was considered to determine radical production. Data analyses were performed using FlowJo 10.1 software.

## CC(=O)C(=O)[O-].[Na+] [sodium pyruvate]
T. rubrum [1]
  inhibition of aPI efficacy by scavenger (fungal growth, CFU): none of the concentrations

## OC[C@@H](O)[C@@H](O)[C@H](O)[C@H](O)CO [D-mannitol]
T. rubrum [1]
  inhibition of aPI efficacy by scavenger (fungal growth, CFU): none of the concentrations

## CCC(C)n1ncn(-c2ccc(N3CCN(c4ccc(OCC5COC(Cn6cncn6)(c6ccc(Cl)cc6Cl)O5)cc4)CC3)cc2)c1=O (centres unmarked) [itraconazole]
T. rubrum [2]; Trichophyton rubrum, clinical T. rubrum strain
  MIC: 0.25 µg/mL (≈ 0.354 µM)

## N[C@@H](CCC(=O)N[C@@H](CSN=O)C(=O)NCC(=O)O)C(=O)O [GSNO, S-nitrosoglutathione]
[3]
  antibacterial activity of an aliquot: no antibacterial activity was observed

## C[C@H](CS)C(=O)N1CCC[C@H]1C(=O)O [captopril]
MRSA; 2.5 mM
  average MRSA survival compared with untreated controls: 99.3%
MRSA; 5 mM
  average MRSA survival compared with untreated controls: 95.6%
MRSA; 10 mM
  average MRSA survival compared with untreated controls: 69.5%
MRSA clinical strains
  effect on MRSA growth (OD600): did not have an effect
E. coli clinical strains
  effect on E. coli growth (OD600): showed an effect on E. coli growth in a dose dependent fashion
E. coli; 2.5 mM
  average E. coli survival compared with untreated controls: 85%
E. coli; 5 mM
  average E. coli survival compared with untreated controls: 83.6%
E. coli; 10 mM
  average E. coli survival compared with untreated controls: 59.1%

## O.O=S(=O)([O-])c1cc(O)c(O)c(S(=O)(=O)[O-])c1.[Na+].[Na+] [Tiron, 4,5-dihydroxy-1,3-benzenedisulfonic acid disodiumsalt hydrate]
T. rubrum [1]
  inhibition of aPI efficacy by scavenger (fungal growth, CFU): none of the concentrations

## Cl.O=S(=O)([O-])c1ccc(-c2c3nc(c(-c4ccc(S(=O)(=O)O)cc4)c4ccc([nH]4)c(-c4ccc(S(=O)(=O)O)cc4)c4nc(c(-c5ccc(S(=O)(=O)O)cc5)c5ccc2[nH]5)C=C4)C=C3)cc1.[Fe] [FeTPPs, 5,10,15,20-tetrakis-(4-sulfonatophenyl)-porphyrinato iron (III) chloride]
T. rubrum [1]
  inhibition of aPI efficacy by scavenger (fungal growth, CFU): T. rubrum growth was relatively intact despite aPI

## COc1cc(/C=C/C(=O)CC(=O)/C=C/c2ccc(O)c(OC)c2)ccc1O [curcumin]
[4]; ground state
  macrophage-induced destruction of T. rubrum cells, no aPI: caused a decrease in macrophage-induced destruction of T. rubrum cells
[4]; vs untreated, dark toxicity and blue light controls
  fungal burden (CFU) in macrophages after aPI: significantly reduced fungal burden
T. rubrum cells
  apoptosis of T. rubrum cells after irradiation with blue light: significant trend towards increased apoptosis
  apoptosis of T. rubrum cells without irradiation: did not induce apoptosis
T. rubrum [2]; seven-day incubation, 0.0012-20 μg/mL
  fungal growth reduction, ground-state (no photoactivation): did not yield significant 80% reduction of fungal growth
T. rubrum microconidia; 0.1 μg/mL, blue light 40 J/cm^2
  fungal viability (CFU) after aPI, lowest PS concentration: did not differ significantly from untreated control
T. rubrum microconidia; 10 μg/mL, blue light 10, 20 and 40 J/cm^2
  T. rubrum growth (CFU) after aPI at varying light dose: completely inhibited T. rubrum growth
T. rubrum microconidia; 10 μg/mL, blue light 40 J/cm^2
  fungal growth (CFU) after aPI, highest concentration: complete growth inhibition
T. rubrum microconidia; 1.0 and 10 μg/mL, blue light 40 J/cm^2, vs untreated
  fungal viability (CFU) after aPI: significantly decreased fungal viability
T. rubrum microconidia; three concentrations tested, no light
  fungal burden, PS without photoactivation (dark toxicity): did not reduce fungal burden
T. rubrum [5]
  fungal burden compared to untreated control: did not significantly reduce fungal burden
T. rubrum [6]; DAF-FM probe
  fold change in NO. production: 6 fold
T. rubrum [6]; DHR 123 probe
  fold-change in ONOO. production: 7 fold
T. rubrum [6]; H2DCFDA probe
  fold-change in ROS production: 17 fold

## CC1(C)N([O])C(c2ccc(C(=O)O)cc2)=[N+]([O-])C1(C)C [carboxy-PTIO]
T. rubrum [1]
  inhibition of aPI efficacy by scavenger (fungal growth, CFU): T. rubrum growth was relatively intact despite aPI
